Experimental data taken from patent US20090136482A1, “DRUG TARGET PROTEIN AND TARGET GENE, AND SCREENING METHOD” (REVERSE PROTEOMICS RESEARCH INSTITUTE CO., LTD., priority 2005, published 2009).
Blank lines part the entries; values can stand above or below the compound they belong to.

Columns and labels:
FLJ12514-derived protein = FLJ12514-derived protein (Homo sapiens, UniProt Q9H9A5); assay: Biacore S51 surface plasmon resonance interaction analysis with FLJ12514-derived protein; format: binding; conditions: for interaction with the protein (dose-dependent binding amount, saturation at high doses): FLJ12514-derived protein, Biacore S51
FLJ12514-derived protein, sequence (Q9H9A5 whole entry): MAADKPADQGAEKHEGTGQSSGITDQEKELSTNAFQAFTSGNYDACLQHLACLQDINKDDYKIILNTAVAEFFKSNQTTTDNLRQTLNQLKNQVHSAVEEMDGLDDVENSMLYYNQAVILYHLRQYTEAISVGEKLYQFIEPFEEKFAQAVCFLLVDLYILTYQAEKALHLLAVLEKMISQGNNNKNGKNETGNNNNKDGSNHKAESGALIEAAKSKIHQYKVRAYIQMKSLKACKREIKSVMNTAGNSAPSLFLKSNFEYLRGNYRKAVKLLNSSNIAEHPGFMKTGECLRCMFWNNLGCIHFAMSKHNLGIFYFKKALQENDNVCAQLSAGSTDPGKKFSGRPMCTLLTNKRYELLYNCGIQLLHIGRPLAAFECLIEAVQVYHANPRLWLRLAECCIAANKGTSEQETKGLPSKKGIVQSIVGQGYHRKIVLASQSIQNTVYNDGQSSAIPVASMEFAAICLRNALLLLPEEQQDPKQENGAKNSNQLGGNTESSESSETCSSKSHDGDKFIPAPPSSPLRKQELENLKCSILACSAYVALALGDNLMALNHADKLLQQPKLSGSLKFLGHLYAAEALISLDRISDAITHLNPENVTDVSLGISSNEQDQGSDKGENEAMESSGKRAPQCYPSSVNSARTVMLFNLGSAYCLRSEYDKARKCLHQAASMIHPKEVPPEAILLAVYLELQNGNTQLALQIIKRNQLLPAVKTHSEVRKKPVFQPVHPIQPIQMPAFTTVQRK
Description: (§1) The obtained plasmids were subjected to phenol/chloroform treatment and the inactivation treatment of RNase according to the PROTEIOS (TOYOBO) protocol to give purified expression plasmids.
(§2) The surface of a CM5 sensor chip for S51 (commercially available from Biacore) was converted to NTA using 1 M EDC, 1.33 M NHS, and 16 mg/ml AB-NTA (pH 9.2) to give an NTA sensor chip for S51. […] The immobilization was performed by sequentially injecting 0.5 M NiCl2, 0.4 M EDC, […], a ligand (protein) solution, and 1 M ethanolamine (pH 8.5) into the passage system of Biacore S51. […] For the correction (solvent correction) of the effect of DMSO contained in the compound solutions and the running buffer, the same solutions as the running buffer containing 3.8 to 5.1% DMSO (8 points) were prepared to perform correction based on the measurement results of these solutions.

FLJ12502-derived protein = target: T1, FLJ12502-derived protein (Homo sapiens, UniProt Q7Z3D6); assay: Biacore S51 surface plasmon resonance interaction analysis with FLJ12502-derived protein
T1 sequence (Q7Z3D6 1-616 isoform Q7Z3D6-1): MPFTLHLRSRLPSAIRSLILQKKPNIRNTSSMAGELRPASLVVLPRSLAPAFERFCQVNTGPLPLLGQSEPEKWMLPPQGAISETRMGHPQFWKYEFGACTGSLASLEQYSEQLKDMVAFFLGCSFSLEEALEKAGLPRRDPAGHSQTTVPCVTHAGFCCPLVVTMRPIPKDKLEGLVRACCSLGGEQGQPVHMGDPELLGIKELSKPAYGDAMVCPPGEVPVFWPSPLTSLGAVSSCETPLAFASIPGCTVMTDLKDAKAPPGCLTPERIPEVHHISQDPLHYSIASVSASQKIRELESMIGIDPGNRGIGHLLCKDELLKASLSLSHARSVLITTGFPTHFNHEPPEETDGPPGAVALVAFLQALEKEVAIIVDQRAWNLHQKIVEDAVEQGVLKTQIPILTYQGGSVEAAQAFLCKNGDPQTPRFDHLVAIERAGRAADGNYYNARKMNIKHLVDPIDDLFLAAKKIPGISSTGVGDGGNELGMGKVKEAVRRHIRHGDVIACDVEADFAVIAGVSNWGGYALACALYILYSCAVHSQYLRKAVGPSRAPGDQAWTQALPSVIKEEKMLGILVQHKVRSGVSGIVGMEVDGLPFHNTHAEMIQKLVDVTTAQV

FLJ14583-derived protein = target: T2, FLJ14583-derived protein (Homo sapiens, UniProt Q12816); assay: Biacore S51 surface plasmon resonance interaction analysis with FLJ14583-derived protein; format: binding
T2 sequence (Q12816 1-1431): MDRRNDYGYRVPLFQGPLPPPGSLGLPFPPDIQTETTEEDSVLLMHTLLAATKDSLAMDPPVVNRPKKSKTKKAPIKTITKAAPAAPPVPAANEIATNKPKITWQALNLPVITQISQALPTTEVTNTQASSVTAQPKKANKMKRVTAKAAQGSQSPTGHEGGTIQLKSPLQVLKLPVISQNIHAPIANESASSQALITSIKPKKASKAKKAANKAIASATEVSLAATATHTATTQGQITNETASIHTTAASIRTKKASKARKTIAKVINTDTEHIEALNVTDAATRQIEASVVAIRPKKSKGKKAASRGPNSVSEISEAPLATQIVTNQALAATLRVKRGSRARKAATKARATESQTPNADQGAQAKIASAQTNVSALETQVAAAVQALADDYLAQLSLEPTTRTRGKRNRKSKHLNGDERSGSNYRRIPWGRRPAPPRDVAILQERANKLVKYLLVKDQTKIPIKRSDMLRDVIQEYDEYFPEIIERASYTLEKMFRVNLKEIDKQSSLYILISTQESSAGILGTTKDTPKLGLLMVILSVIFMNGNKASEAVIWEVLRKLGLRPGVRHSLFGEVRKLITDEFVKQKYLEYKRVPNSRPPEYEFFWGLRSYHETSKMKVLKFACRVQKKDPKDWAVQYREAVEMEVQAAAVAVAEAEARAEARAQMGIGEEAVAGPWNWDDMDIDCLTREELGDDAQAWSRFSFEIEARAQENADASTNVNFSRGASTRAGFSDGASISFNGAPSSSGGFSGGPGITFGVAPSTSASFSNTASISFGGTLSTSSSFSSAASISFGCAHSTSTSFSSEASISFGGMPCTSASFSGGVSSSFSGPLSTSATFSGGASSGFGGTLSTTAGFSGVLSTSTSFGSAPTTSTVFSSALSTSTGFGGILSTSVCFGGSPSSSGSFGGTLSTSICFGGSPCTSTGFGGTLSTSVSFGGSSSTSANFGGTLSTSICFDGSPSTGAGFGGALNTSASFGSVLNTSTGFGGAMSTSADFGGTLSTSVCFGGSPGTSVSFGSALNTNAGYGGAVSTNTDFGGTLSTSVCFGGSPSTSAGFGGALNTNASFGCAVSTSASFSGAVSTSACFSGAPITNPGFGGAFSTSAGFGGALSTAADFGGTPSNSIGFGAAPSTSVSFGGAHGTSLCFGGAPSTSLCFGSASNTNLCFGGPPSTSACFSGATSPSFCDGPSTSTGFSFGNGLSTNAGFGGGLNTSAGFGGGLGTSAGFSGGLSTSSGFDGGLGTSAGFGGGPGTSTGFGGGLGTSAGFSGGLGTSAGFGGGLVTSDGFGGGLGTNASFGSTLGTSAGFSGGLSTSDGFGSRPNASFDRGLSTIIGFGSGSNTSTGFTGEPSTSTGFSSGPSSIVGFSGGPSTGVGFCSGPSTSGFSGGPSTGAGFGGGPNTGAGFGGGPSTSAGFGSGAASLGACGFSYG
Description: as §1, §2

FLJ31146-derived protein = target: T3, FLJ31146-derived protein (Homo sapiens, UniProt Q9BSE4); assay: Biacore S51 surface plasmon resonance interaction analysis with FLJ31146-derived protein; format: binding
T3 construct: fused on or other part: N-terminal histidine tag and FLAG tag, with Gateway linker residues
T3 sequence (Q9BSE4 1-406): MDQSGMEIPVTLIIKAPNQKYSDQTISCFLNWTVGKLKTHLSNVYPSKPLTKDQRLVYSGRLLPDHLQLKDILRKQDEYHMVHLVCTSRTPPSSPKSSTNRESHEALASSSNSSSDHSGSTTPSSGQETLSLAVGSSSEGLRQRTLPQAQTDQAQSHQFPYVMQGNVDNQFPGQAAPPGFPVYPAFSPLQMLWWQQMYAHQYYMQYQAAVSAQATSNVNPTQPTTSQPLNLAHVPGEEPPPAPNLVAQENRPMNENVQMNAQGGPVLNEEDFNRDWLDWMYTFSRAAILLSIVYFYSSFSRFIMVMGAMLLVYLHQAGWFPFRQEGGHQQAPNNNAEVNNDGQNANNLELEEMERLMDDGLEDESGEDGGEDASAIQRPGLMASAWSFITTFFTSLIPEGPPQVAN
Description: as §1, §2

FLJ10368-derived protein = target: T4, FLJ10368-derived protein (Homo sapiens, UniProt Q9NUX5); assay: Biacore S51 surface plasmon resonance interaction analysis with FLJ10368-derived protein; format: binding
T4 construct: fused on or other part: N-terminal histidine tag and FLAG tag, with Gateway linker residues
T4 sequence (Q9NUX5 1-634): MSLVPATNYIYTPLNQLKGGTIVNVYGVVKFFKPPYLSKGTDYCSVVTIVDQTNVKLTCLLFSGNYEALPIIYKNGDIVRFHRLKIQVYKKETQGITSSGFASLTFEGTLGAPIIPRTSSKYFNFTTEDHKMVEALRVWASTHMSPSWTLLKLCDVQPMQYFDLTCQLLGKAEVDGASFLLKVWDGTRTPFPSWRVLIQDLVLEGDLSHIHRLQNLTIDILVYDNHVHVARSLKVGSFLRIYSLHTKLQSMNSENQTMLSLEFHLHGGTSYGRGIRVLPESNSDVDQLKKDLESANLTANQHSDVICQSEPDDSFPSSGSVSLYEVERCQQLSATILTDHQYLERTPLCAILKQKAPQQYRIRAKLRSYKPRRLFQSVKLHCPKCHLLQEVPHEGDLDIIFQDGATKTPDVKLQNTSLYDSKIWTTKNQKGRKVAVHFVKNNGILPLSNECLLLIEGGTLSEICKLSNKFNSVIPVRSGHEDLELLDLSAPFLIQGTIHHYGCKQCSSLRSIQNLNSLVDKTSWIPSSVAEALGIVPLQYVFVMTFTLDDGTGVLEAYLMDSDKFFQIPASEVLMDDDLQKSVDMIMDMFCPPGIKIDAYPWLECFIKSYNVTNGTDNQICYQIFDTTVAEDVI
Description: as §1, §2

FLJ12389-derived protein = target: T5, FLJ12389-derived protein (Homo sapiens, UniProt Q86V21); assay: Biacore S51 surface plasmon resonance interaction analysis with FLJ12389-derived protein; format: binding
T5 sequence (Q86V21 1-672): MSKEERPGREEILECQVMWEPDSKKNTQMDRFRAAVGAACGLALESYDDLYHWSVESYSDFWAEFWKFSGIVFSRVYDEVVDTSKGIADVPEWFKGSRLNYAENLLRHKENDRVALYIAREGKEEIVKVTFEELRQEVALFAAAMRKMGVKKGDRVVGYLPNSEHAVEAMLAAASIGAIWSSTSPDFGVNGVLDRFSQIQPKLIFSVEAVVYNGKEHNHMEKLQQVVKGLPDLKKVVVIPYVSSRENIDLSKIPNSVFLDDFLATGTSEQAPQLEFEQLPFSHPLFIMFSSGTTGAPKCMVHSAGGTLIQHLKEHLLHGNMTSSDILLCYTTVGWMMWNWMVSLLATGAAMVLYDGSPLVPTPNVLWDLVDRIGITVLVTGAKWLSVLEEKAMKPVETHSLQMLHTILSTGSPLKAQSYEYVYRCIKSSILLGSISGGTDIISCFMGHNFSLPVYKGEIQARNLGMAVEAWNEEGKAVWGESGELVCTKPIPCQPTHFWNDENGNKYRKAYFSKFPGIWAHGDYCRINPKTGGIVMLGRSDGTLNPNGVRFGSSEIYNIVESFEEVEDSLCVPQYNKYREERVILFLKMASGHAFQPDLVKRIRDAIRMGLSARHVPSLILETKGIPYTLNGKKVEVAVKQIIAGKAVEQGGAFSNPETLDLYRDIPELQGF
Description: as §1, §2

SMILES: CC[C@@]1(O)C[C@H](O[C@H]2C[C@H](N(C)C)[C@H](O[C@H]3C[C@H](O)[C@H](O[C@H]4CCC(=O)[C@H](C)O4)[C@H](C)O3)[C@H](C)O2)c2c(cc3c(c2O)C(=O)c2c(O)cccc2C3=O)[C@H]1C(=O)OC [aclarubicin]
- Kd (FLJ12514-derived protein): 6.11 µM
- interaction with the protein (dose-dependent binding amount, saturation at high doses) (FLJ12514-derived protein): specifically interact

SMILES: CC1=C(C(=O)O)N2C(=O)[C@@H](NC(=O)[C@H](N)c3ccccc3)[C@H]2SC1 [cephalexin]
- Kd (FLJ12502-derived protein): 5.98 µM
- interaction with the protein (dose-dependent binding amount, saturation at high doses) (FLJ12502-derived protein; FLJ12502-derived protein, Biacore S51): specifically interact
- interaction with the protein (dose-dependent binding amount, saturation at high doses) (FLJ14583-derived protein): specifically interact
- interaction with the protein (dose-dependent binding amount, saturation at high doses) (FLJ31146-derived protein): specifically interact

- interaction with the protein (dose-dependent binding amount, saturation at high doses) (FLJ10368-derived protein): specifically interact
SMILES: COC(=O)[C@H]1[C@H]2C[C@@H]3c4[nH]c5cc(OC)ccc5c4CCN3C[C@H]2C[C@@H](OC(=O)c2cc(OC)c(OC)c(OC)c2)[C@@H]1OC [reserpine]

- interaction with the protein (dose-dependent binding amount, saturation at high doses) (FLJ12389-derived protein): specifically interact
- interaction with the protein (dose-dependent binding amount, saturation at high doses) (FLJ10368-derived protein): specifically interact
- interaction with the protein (dose-dependent binding amount, saturation at high doses) (FLJ12514-derived protein): specifically interact
SMILES: c1ccc2[nH]c(-c3cscn3)nc2c1 [thiabendazole]
